Measurements as given in patent publication US7196104B2, “Thiazolyl urea compounds and methods of uses” (Amgen, Inc., priority 2000, dated 2007).

Compound | melting point [°C]
CCc1cccc(NC(=O)Nc2csc(-c3ccccn3)n2)n1 [Example 44, N-[2-(2-Pyridinyl)-4-thiazolyl]-N′-2-(6-ethylpyridinyl)urea] | 213 to 215
CCc1ccnc(NC(=O)Nc2csc(-c3ccccn3)n2)c1 [Example 50, N-[2-(2-Pyridinyl)-4-thiazolyl]-N′-2-(4-ethylpyridinyl)urea] | 196 to 198
O=C(Nc1cccc(NCCCN2CCOCC2)n1)Nc1csc(-c2ccncc2)n1 [Example 33] | 215 to 217
Cc1ccc(NC(=O)Nc2csc(-c3ccccn3)n2)nc1 [Example 38, N-[2-(2-Pyridinyl)-4-thiazolyl]-N′-2-(5-methylpyridinyl)urea] | 228 to 230
COc1cccc(-c2nc(NC(=O)Nc3ccccn3)cs2)c1 [Example 48, N-[2-(3-Methoxyphenyl)-4-thiazolyl]-N′-2-pyridinylurea] | 201 to 203
CCCc1cccc(NC(=O)Nc2csc(-c3ccccn3)n2)n1 [Example 51, N-[2-(2-Pyridinyl)-4-thiazolyl]-N′-2-(6-propylpyridinyl)urea] | 210 to 212
CCCc1cccc(NC(=O)Nc2cccc(-c3ccncc3)c2)n1 [Example 54, N-[3-(4-Pyridinyl)phenyl]-N′-2-(6-propylpyridinyl)urea] | 195 to 198
CCCc1cccc(NC(=O)Nc2csc(-c3ccc(OC)cc3)n2)n1 [Example 45, N-[2-(4-Methoxyphenyl)-4-thiazolyl]-N′-2-(6-propylpyridinyl)urea] | 223 to 225
O=C(Nc1ccccn1)Nc1csc(-c2ccccn2)n1 [Example 5, N-[2-(2-Pyridinyl)-4-thiazolyl]-N′-2-pyridinylurea] | 233 to 235
CN(C)CCNc1cccc(NC(=O)Nc2csc(-c3ccncc3)n2)n1 [Example 35, N-[2-(4-Pyridinyl)-4-thiazolyl]-N′-2-[6-(N″,N″-aminoethylamino)pyridinyl]urea] | 210 to 212
CCCc1cccc(NC(=O)Nc2csc(-c3cccc(OC)c3)n2)n1 [Example 47, N-[2-(3-Methoxyphenyl)-4-thiazolyl]-N′-2-(6-propylpyridinyl)urea] | 192 to 194
CCCc1cccc(NC(=O)Nc2csc(-c3ccnc(CC)c3)n2)n1 [Example 14, N-[2-(2-Ethyl-4-pyridinyl)-4-thiazolyl]-N′-2-(6-propylpyridinyl)urea] | 204 to 206
Cc1ccnc(NC(=O)Nc2csc(-c3ccccn3)n2)c1 [Example 42, N-[2-(2-Pyridinyl)-4-thiazolyl]-N′-2-(4-methylpyridinyl)urea] | 217 to 219
CC(C)(C)c1cc(NC(=O)Nc2csc(-c3cccnc3)n2)no1 [Example 37, N-[2-(3-Pyridinyl)-4-thiazolyl]-N′-[5-(1,1-dimethylethyl)-3-isoxazolyl]urea] | 230 to 232
CCCc1cccc(NC(=O)Nc2csc(-c3ccc(O)cc3)n2)n1 [Example 46, N-[2-(4-Hydroxyphenyl)-4-thiazolyl]-N′-2-(6-propylpyridinyl)urea] | 227 to 229
NC(=O)c1ccc(NC(=O)Nc2csc(-c3ccncc3)n2)nc1 [Example 34, [[(2-(4-Pyridinyl)-4-thiazolylamino)carbonyl]amino]-2-pyridinyl-5-carboxamide] | 255 to 257
Cc1cc(C)nc(NC(=O)Nc2csc(-c3ccccn3)n2)c1 [Example 40, N-[2-(2-Pyridinyl)-4-thiazolyl]-N′-2-(4,6-dimethylpyridinyl)urea] | 232 to 234
CN1CCN(c2cccc(NC(=O)Nc3csc(-c4ccncc4)n3)n2)CC1 [Example 31, N-[2-(4-Pyridinyl)-4-thiazolyl]-N′-2-[6-(1-methyl-4-piperazinyl)pyridinyl]urea] | 251 to 253
Cc1ccc2nc(NC(=O)Nc3csc(-c4ccccn4)n3)sc2c1 [Example 41, N-[2-(2-Pyridinyl)-4-thiazolyl]-N′-2-(6-methylbenzthiazolyl)urea] | 263 to 265
